Test results from ChEMBL document CHEMBL3865833, “Functional induction of P-glycoprotein efflux pump by phenyl benzenesulfonamides: Synthesis and biological evaluation of T0901317 analogs” (Eur J Med Chem, 2016).

Assays:
[1] = Cytotoxicity against human SH-SY5Y cells assessed as effect on cell viability at 50 uM measured after 24 hrs by MTT assay relative to control; assay type: toxicity, cell-based; conditions: read-out: Activity
LS180 = assay: Activation of PXR/LXR in human LS180 cells assessed as induction of P-gp measured as intracellular accumulation of Rhodamine-123 at 5 uM preincubated for 48 hrs followed by 40 mins incubation with HANKS buffer and subsequent addition of Rhodamine-123 measured after 90 mins by fluorescence analysis relative to control; assay type: cell-based
[2] = Therapeutic index, ratio of effective concentration for cytotoxicity in human SH-SY5Y cells to effective concentration for activation of PXR/LXR in human LS180 cells assessed as induction of P-gp; assay type: cell-based; conditions: read-out: TI
[3] = Cytotoxicity against human LS180 cells assessed as effect on cell viability at 50 uM measured after 24 hrs by MTT assay relative to control; assay type: toxicity, cell-based; conditions: read-out: Activity
[4] = Therapeutic index, ratio of effective concentration for cytotoxicity in human LS180 cells to effective concentration for activation of PXR/LXR in human LS180 cells assessed as induction of P-gp; assay type: cell-based; conditions: read-out: TI

SMILES	viability at 24 h, 50 µM [1] [%]	Activity (LS180) [%]	selectivity ratio [2]	viability at 24 h, 50 µM [3] [%]	selectivity ratio [4]
CC(=O)c1ccc(N(Cc2cn(-c3ccc(OC(F)(F)F)cc3)nn2)S(=O)(=O)c2ccccc2)cc1	64.4	83.4	10	67.6	10
CC(=O)c1ccc(N(Cc2cn(-c3ccc(Cl)cc3)nn2)S(=O)(=O)c2ccccc2)cc1	74.4	68.8	–	88.1	10
COC(=O)c1ccc(-n2cc(CN(c3ccc(C(C)=O)cc3)S(=O)(=O)c3ccccc3)nn2)cc1	71.8	77	10	80.6	10
O=S(=O)(c1ccccc1)N(Cc1cn(-c2ccc(C(F)(F)F)cc2)nn1)c1ccc(C(O)(C(F)(F)F)C(F)(F)F)cc1	49.8	70.2	10	62.8	10
O=S(=O)(c1ccccc1)N(Cc1cn(-c2ccc(OC(F)(F)F)cc2)nn1)c1ccc(C(O)(C(F)(F)F)C(F)(F)F)cc1	43.5	67.8	10	68.7	10
Cc1ccc(-n2cc(CN(c3ccc(C(O)(C(F)(F)F)C(F)(F)F)cc3)S(=O)(=O)c3ccccc3)nn2)cc1	48.9	74.6	–	71.9	10
CC(=O)c1ccc(N(Cc2ccccc2)S(=O)(=O)c2ccccc2)cc1	112	64.5	–	89.5	10
CC(=O)c1ccc(N(Cc2cn(-c3ccc(O)c([N+](=O)[O-])c3)nn2)S(=O)(=O)c2ccccc2)cc1	71.3	74	10	96.1	10
CC(=O)c1ccc(N(Cc2cn(-c3c(C)cccc3C)nn2)S(=O)(=O)c2ccccc2)cc1	80.4	58.4	10	60.6	10
CC(=O)c1ccc(N(Cc2cn(-c3ccc(C(C)=O)cc3)nn2)S(=O)(=O)c2ccccc2)cc1	97.3	66.2	10	87.3	10
COc1ccc(-n2cc(CN(c3ccc(C(O)(C(F)(F)F)C(F)(F)F)cc3)S(=O)(=O)c3ccccc3)nn2)cc1	59.2	81.4	10	84.9	10
CC(=O)c1ccc(N(Cc2cn(-c3cccc([N+](=O)[O-])c3)nn2)S(=O)(=O)c2ccccc2)cc1	74.2	71.6	10	112	10
C#CCN(c1ccc(C(O)(C(F)(F)F)C(F)(F)F)cc1)S(=O)(=O)c1ccccc1	112	60.8	10	89.5	10
CC(=O)c1ccc(-n2cc(CN(c3ccc(C(O)(C(F)(F)F)C(F)(F)F)cc3)S(=O)(=O)c3ccccc3)nn2)cc1	42.2	81.6	10	70.7	10
C#CCOC(c1ccc(N(CC#C)S(=O)(=O)c2ccccc2)cc1)(C(F)(F)F)C(F)(F)F	88.7	79.7	10	78.7	10
O=[N+]([O-])c1ccc(-n2cc(CN(c3ccc(C(O)(C(F)(F)F)C(F)(F)F)cc3)S(=O)(=O)c3ccccc3)nn2)cc1	39.6	80.6	10	66.2	10
CC(=O)c1ccc(N(Cc2cn(-c3ccc(C)cc3)nn2)S(=O)(=O)c2ccccc2)cc1	85.8	58.6	10	84.1	10
CC(=O)c1ccc(N(Cc2cn(-c3ccccc3F)nn2)S(=O)(=O)c2ccccc2)cc1	93.6	55.7	10	83.8	–
CC(=O)c1ccc(N(CC(F)(F)F)S(=O)(=O)c2ccccc2)cc1	81.3	63.5	–	88.3	10
O=S(=O)(c1ccccc1)N(Cc1cn(-c2ccc(F)cc2F)nn1)c1ccc(C(O)(C(F)(F)F)C(F)(F)F)cc1	86.5	66.3	10	93.6	–
CC(=O)c1ccc(N(Cc2cn(-c3ccccc3C#N)nn2)S(=O)(=O)c2ccccc2)cc1	99	86.2	10	91.8	10
CC(=O)c1ccc(N(Cc2cn(-c3ccc([N+](=O)[O-])cc3)nn2)S(=O)(=O)c2ccccc2)cc1	105	55.6	10	74.7	10
O=S(=O)(c1ccccc1)N(Cc1cn(-c2ccccc2)nn1)c1ccc(C(O)(C(F)(F)F)C(F)(F)F)cc1	39.5	87.9	10	46.4	10
O=S(=O)(c1ccccc1)N(Cc1cn(-c2ccc(F)cc2)nn1)c1ccc(C(O)(C(F)(F)F)C(F)(F)F)cc1	36.4	70.5	10	51.5	10
O=S(=O)(c1ccccc1)N(Cc1cn(-c2cccc(F)c2)nn1)c1ccc(C(O)(C(F)(F)F)C(F)(F)F)cc1	29.8	90.3	10	56	10
COc1ccc(-n2cc(CN(c3ccc(C(C)=O)cc3)S(=O)(=O)c3ccccc3)nn2)cc1	88.5	86.3	10	93.3	10
CC(=O)c1ccc(N(Cc2cn(-c3ccccc3C)nn2)S(=O)(=O)c2ccccc2)cc1	92.9	65.1	10	64.4	10
Cc1ccc(C)c(-n2cc(CN(c3ccc(C(O)(C(F)(F)F)C(F)(F)F)cc3)S(=O)(=O)c3ccccc3)nn2)c1	93	69	10	76.9	10
CC(=O)c1ccc(N(Cc2cn(-c3ccc(F)cc3)nn2)S(=O)(=O)c2ccccc2)cc1	90.4	55.9	10	60	–
CC(=O)c1ccc(N(Cc2cn(-c3ccc(C(O)(C(F)(F)F)C(F)(F)F)cc3)nn2)S(=O)(=O)c2ccccc2)cc1	123	87.4	–	103	–
